In patent US8183234B2, “Tricyclic guanidine derivatives as sodium-proton exchange inhibitors” (Piramal Life Sciences Limited, priority 2004, dated 2012):
Structures can show the parent of a compound that is named as a salt.

| melting point [°C] | Structure (SMILES) |
| --- | --- |
| 280 to 282 | CS(=O)(=O)O.N=C(N)NC(=O)c1ccc2c(c1)S(=O)(=O)Cc1cc(Cl)ccc1O2 [Example 3, N-(2-Chloro-10,10-dioxo-10,11-dihydro-5-oxa-10lambda*6*-thia-dibenzo[a,d]cycloheptene-8-carbonyl)-guanidine, methanesulfonic acid salt] |
| 243 to 245 | CS(=O)(=O)O.CS(=O)(=O)O.Cc1cc(C(=O)NC(=N)N)cc2c1Oc1c(Cl)cc(NCCNCc3cccs3)cc1CS2(=O)=O [Example 86, N-(4-Chloro-6-methyl-10,10-dioxo-2-{2-[(thiophen-2-ylmethyl)-amino]-ethylamino}-10,11-dihydro-5-oxa-10lambda*6*thia-dibenzo[a,d]cycloheptene-8-carbonyl)-guanidine dimesylate] |
| 184 to 185 | CCCCCCCCCCN1CCN(c2cc(Cl)c3c(c2)CS(=O)(=O)c2cc(C(=O)NC(=N)N)cc(C)c2O3)CC1.CS(=O)(=O)O.CS(=O)(=O)O [Example 105, N-[4-Chloro-2-(4-decyl-piperazin-1-yl)-6-methyl-10,10-dioxo-10,11-dihydro-5-oxa-10lambda*6*-thia-dibenzo[a,d]cycloheptene-8-carbonyl]-guanidine dimesylate] |
| 168 to 169 | COCC(=O)N(CCN1CCOCC1)c1cc(Cl)c2c(c1)CS(=O)(=O)c1cc(C(=O)NC(=N)N)cc(C)c1O2.CS(=O)(=O)O.CS(=O)(=O)O [Example 69, N-(4-Chloro-8-guanidinocarbonyl-6-methyl-10,10-dioxo-10,11-dihydro-5-oxa-10lambda*6*-thia-dibenzo[a,d]cyclohepten-2-yl)-2-methoxy-N-(2-morpholin-4-yl-ethyl)-acetamide dimesylate] |
| 272 to 274 | Cc1cc2c(cc1C(=O)N=C(N)N)S(=O)(=O)Cc1ccccc1O2 (as salt: sulfonic acid salt) [Example 27, N-(7-Methyl-10,10-dioxo-10,11-dihydro-5-oxa-10lambda*6*-thia-dibenzo[a,d]cycloheptene-8-carbonyl)-guanidine, methane sulfonic acid salt] |
| 238 | CS(=O)(=O)O.CS(=O)(=O)O.Cc1cc(C(=O)NC(=N)N)cc2c1Oc1c(Cl)cc(NCc3cccnc3)cc1CS2(=O)=O [Example 165, N-{4-Chloro-6-methyl-10,10-dioxo-2-[(pyridin-3-ylmethyl)-amino]-10,11-dihydro-5-oxa-10lambda*6*-thia-dibenzo[a,d]cycloheptene-8-carbonyl}-guanidine dimesylate] |
| 204 to 206 | COCC(=O)N(CCN1CCCC1)c1cc(Cl)c2c(c1)CS(=O)(=O)c1cc(C(=O)NC(=N)N)cc(C)c1O2.CS(=O)(=O)O.CS(=O)(=O)O [Example 77, N-(4-Chloro-8-guanidinocarbonyl-6-methyl-10,10-dioxo-10,11-dihydro-5-oxa-10lambda*6*-thia-dibenzo[a,d]cyclohepten-2-yl)-2-methoxy-N-(2-pyrrolidin-1-yl-ethyl)-acetamide dimesylate] |
| 196 to 198 | CS(=O)(=O)O.CS(=O)(=O)O.Cc1cc(C(=O)NC(=N)N)cc2c1Oc1c(Cl)cc(N3CCN(C(C)C)CC3=O)cc1CS2(=O)=O [Example 60, N-[4-Chloro-2-(4-isopropyl-2-oxo-piperazin-1-yl)-6-methyl-10,10-dioxo-10,11-dihydro-5-oxa-10lambda*6*-thia-dibenzo[a,d]cycloheptene-8-carbonyl]-guanidine dimesylate] |
| 187 to 189 | CS(=O)(=O)O.CS(=O)(=O)O.Cc1cc(C(=O)NC(=N)N)cc2c1Oc1c(Cl)cc(S(=O)(=O)N3CCN(C)CC3)cc1CS2(=O)=O [Example 54, N-[4-Chloro-6-methyl-2-(4-methyl-piperazine-1-sulfonyl)-10,10-dioxo-10,11-dihydro-5-oxa-10lambda*6*-thia-dibenzo[a,d]cyclohepten-8-carbonyl]-guanidine dimesylate] |
| 190 to 192 | CS(=O)(=O)O.CS(=O)(=O)O.Cc1cc(C(=O)NC(=N)N)cc2c1Oc1c(Cl)cc(NC(=O)CNC3CCCC3)cc1CS2(=O)=O [Example 140, N-(4-Chloro-8-guanidinocarbonyl-6-methyl-10,10-dioxo-10,11-dihydro-5-oxa-10lambda*6*-thia-dibenzo[a,d]cyclohepten-2-yl)-2-cyclopentylamino-acetamide dimesylate] |
| 275 to 277 | CS(=O)(=O)O.CS(=O)(=O)O.Cc1cc(C(=O)NC(=N)N)cc2c1Oc1c(Cl)cc(N3CCN(C4CCC4)CC3)cc1CS2(=O)=O [Example 129, N-[4-Chloro-2-(4-cyclobutyl-piperazin-1-yl)-6-methyl-10,10-dioxo-10,11-dihydro-5-oxa-10lambda*6*-thia-dibenzo[a,d]cycloheptene-8-carbonyl]-guanidine dimesylate] |
| 188 to 190 | CNCC(=O)Nc1cc(Cl)c2c(c1)CS(=O)(=O)c1cc(C(=O)NC(=N)N)cc(C)c1O2.CS(=O)(=O)O.CS(=O)(=O)O [Example 146, N-(4-Chloro-8-guanidinocarbonyl-6-methyl-10,10-dioxo-10,11-dihydro-5-oxa-10lambda*6*-thia-dibenzo[a,d]cyclohepten-2-yl)-2-methylamino-acetamide dimesylate] |
| 196 to 198 | CS(=O)(=O)O.CS(=O)(=O)O.CS(=O)(=O)O.Cc1cc(C(=O)NC(=N)N)cc2c1Oc1c(Cl)cc(NCCNCCc3ccccn3)cc1CS2(=O)=O [Example 83, N-{4-Chloro-6-methyl-10,10-dioxo-2-[2-(2-pyridin-2-yl-ethylamino)-ethylamino]-10,11-dihydro-5-oxa-10lambda*6*-thia-dibenzo[a,d]cycloheptene-8-carbonyl}-guanidine trimesylate] |
| 306 to 307 | CS(=O)(=O)O.CS(=O)(=O)O.Cc1cc(C(=O)NC(=N)N)cc2c1Oc1c(Cl)cc(N3CCN(C(=O)c4ccc[nH]4)CC3)cc1CS2(=O)=O [Example 110, N-{4-Chloro-6-methyl-10,10-dioxo-2-[4-(1H-pyrrole-2-carbonyl)-piperazin-1-yl]-10,11-dihydro-5-oxa-10lambda*6*-thia-dibenzo[a,d]cycloheptene-8-carbonyl}-guanidine dimesylate] |
| 222 | CS(=O)(=O)O.CS(=O)(=O)O.Cc1cc(C(=O)NC(=N)N)cc2c1Oc1c(Cl)cc(NC(=O)CN3CCN(c4cccc(C(F)(F)F)c4)CC3)cc1CS2(=O)=O [Example 145, N-(4-Chloro-8-guanidinocarbonyl-6-methyl-10,10-dioxo-10,11-dihydro-5-oxa-10lambda*6*-thia-dibenzo[a,d]cyclohepten-2-yl)-2-[4-(3-trifluoromethyl-phenyl)-piperazin-1-yl]-acetamide dimesylate] |
| 224 to 225 | COc1ccccc1CNCCNc1cc(Cl)c2c(c1)CS(=O)(=O)c1cc(C(=O)NC(=N)N)cc(C)c1O2.CS(=O)(=O)O.CS(=O)(=O)O [Example 90, N-{4-Chloro-2-[2-(2-methoxy-benzylamino)-ethylamino]-6-methyl-10,10-dioxo-10,11-dihydro-5-oxa-10lambda*6*-thia-dibenzo[a,d]cycloheptene-8-carbonyl}-guanidine dimesylate] |
| 255 to 257 | CCN1CCN(c2cc(Cl)c3c(c2)CS(=O)(=O)c2cc(C(=O)NC(=N)N)cc(C)c2O3)CC1.CS(=O)(=O)O.CS(=O)(=O)O [Example 116, N-[4-Chloro-2-(4-ethyl-piperazin-1-yl)-6-methyl-10,10-dioxo-10,11-dihydro-5-oxa-10lambda*6*-thia-dibenzo[a,d]cycloheptene-8-carbonyl]-guanidine dimesylate] |
| 178 to 179 | CS(=O)(=O)O.CS(=O)(=O)O.Cc1cc(C(=O)NC(=N)N)cc2c1Oc1c(Cl)cc(N(CCN3CCCC3)C(=O)C3CC3)cc1CS2(=O)=O [Example 76, Cyclopropanecarboxylic acid (4-chloro-8-guanidinocarbonyl-6-methyl-10,10-dioxo-10,11-dihydro-5-oxa-10lambda*6*-thia-dibenzo[a,d]cyclohepten-2-yl)-(2-pyrrolidin-1-yl-ethyl)-amide dimesylate] |
| 218 to 220 | CS(=O)(=O)O.CS(=O)(=O)O.CS(=O)(=O)O.Cc1cc(C(=O)NC(=N)N)cc2c1Oc1c(Cl)cc(NCCN3CCN(CCO)CC3)cc1CS2(=O)=O [Example 70, N-(4-Chloro-2-{2-[4-(2-hydroxy-ethyl)-piperazin-1-yl]-ethylamino}-6-methyl-10,10-dioxo-10,11-dihydro-5-oxa-10lambda*6*-thia-dibenzo{a,d}cycloheptene-8-carbonyl)-guanidine trimesylate] |
| 282 to 287 | CS(=O)(=O)O.CS(=O)(=O)O.Cc1cc(C(=O)NC(=N)N)cc2c1Oc1c(Cl)cc(N3CCN(CC4CC4)CC3)cc1CS2(=O)=O [Example 123, N-[4-Chloro-2-(4-cyclopropylmethyl-piperazin-1-yl)-6-methyl-10,10-dioxo-10,11-dihydro-5-oxa-10lambda*6*-thia-dibenzo[a,d]cycloheptene-8-carbonyl]-guanidine dimesylate] |
| 250 to 251 | CNCCNc1cc(Cl)c2c(c1)CS(=O)(=O)c1cc(C(=O)NC(=N)N)cc(C)c1O2.CS(=O)(=O)O.CS(=O)(=O)O [Example 71, N-[4-Chloro-6-methyl-2-(2-methylamino-ethylamino)-10,10-dioxo-10,11-dihydro-5-oxa-10lambda*6*-thia-dibenzo[a,d]cycloheptene-8-carbonyl)-guanidine dimesylate] |
| 221 to 222 | CS(=O)(=O)O.Cc1cc(C(=O)NC(=N)N)cc2c1Oc1c(Cl)cc(S(=O)(=O)Nc3nnc(C4CC4)s3)cc1CS2(=O)=O [Example 51, 4-Chloro-8-guanidinocarbonyl-6-methyl-10,10-dioxo-10,11-dihydro-5-oxa-10lambda*6*-thia-dibenzo[a,d]cycloheptene-2-sulfonic acid (5-cyclopropyl-[1,3,4]thiadiazol-2-yl)-amide methane sulfonic acid salt] |
| 243 to 245 | CS(=O)(=O)O.CS(=O)(=O)O.CS(=O)(=O)O.Cc1cc(C(=O)NC(=N)N)cc2c1Oc1c(Cl)cc(N3CCN(CCN(C)C)CC3)cc1CS2(=O)=O [Example 119, N-{4-Chloro-2-[4-(2-dimethylamino-ethyl)-piperazin-1-yl]-6-methyl-10,10-dioxo-10,11-dihydro-5-oxa-10lambda*6*-thia-dibenzo[a,d]cycloheptene-8-carbonyl}-guanidine trimesylate] |
